Four compounds from patent US20090148382A1, “Technetium- and rhenium-bis(heteroaryl) complexes, and methods of use thereof” (Molecular Insight Pharmaceuticals, Inc., priority 2004, published 2009) can be followed below.

Series [1] in a line: Stability to transchelation (cysteine / histidine challenge). It is filed as physicochemical. Conditions: 99mTc-labeled HPLC purified product.
Description: The stability of the complex to transchelation was investigated by incubating two separate samples of 4b with 1000 fold excess of cysteine and histidine in PBS buffer heated to 37° C.
Series [2] can be described thus: Biodistribution / blood clearance of 99mTc complex. Format: in vivo. The text has this: We have also explored extensively the use as ligands for metal tricarbonyls, e.g., Re and Tc tricarbonyls, of protected and unprotected versions of [ε-{N,N-di(pyridyl-2-methyl)}α-(fmoc)lysine] (Fmoc-DpK). The choice of the tridentate DpK for the exploration of a single amino acid chelate was based on the excellent RCP and RCY, and the potential to prepare radiopharmaceutical kits. The pyridine-2-methylamine was easily derivatized into the amino acid.
This approach enables the creation of libraries containing the {M(CO)3}^1+ core. We have begun to define the biological fate of the ^99mTc-bis(heteroaryl) complexes, allowing us to compare a series of future tridentate analogs. The dipyridine labeling proceeded in high yield and was stable to excess histidine and cysteine challenges for more than 18 hours. […] Activity decreased in all tissues as a function of time, except in the GI tract, which increased with time.

Series [3] addresses T1, formyl peptide receptor (Homo sapiens, UniProt P21462).
T1 sequence (P21462 1-350): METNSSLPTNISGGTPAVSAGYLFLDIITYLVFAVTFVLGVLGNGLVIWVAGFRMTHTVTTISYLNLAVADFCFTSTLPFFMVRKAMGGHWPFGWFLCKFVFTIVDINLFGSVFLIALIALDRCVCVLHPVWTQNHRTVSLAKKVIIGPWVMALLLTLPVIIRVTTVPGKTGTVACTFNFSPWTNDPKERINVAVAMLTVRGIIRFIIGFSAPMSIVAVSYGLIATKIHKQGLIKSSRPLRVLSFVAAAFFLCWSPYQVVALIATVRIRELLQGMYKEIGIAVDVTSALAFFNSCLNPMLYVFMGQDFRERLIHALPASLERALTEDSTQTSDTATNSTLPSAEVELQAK
Description: Affinity for the formyl peptide receptor by flow cytometry. Format: binding. Conditions: fluorescein labeled fNLFNTK as the reference ligand. The procedure: The affinity of 5 and 6 for the formyl peptide receptor was determined by flow cytometry using fluorescein labeled fNLFNTK as the reference ligand.

As for `O=C(NC(CCCCN(Cc1ccccn1)Cc1ccccn1)C(=O)O)OCC1c2ccccc2-c2ccccc21` (stereo not drawn) [Fmoc-DpK, [ε-{N,N-di(pyridyl-2-methyl)}α-(fmoc)lysine]], in series [1] (100 mM Cysteine or Histidine in PBS pH 7.2 at 37° C. for 18 hrs), the “degradation in challenge experiments” value is reported as “no degradation”. Take `O=C1c2ccccc2C(=O)N1CCCCN(Cc1ccccn1)Cc1ccccn1` [[{N,N-di(pyridyl-2-methyl)}N-butyl-phthlalimide]]: in series [1] (10 mM Cysteine or Histidine in PBS pH 7.2 at 37° C. for 20 hrs), the “degradation in challenge experiments” value was “no degradation”. In the case of [^99mTc(CO)3(DpK)], the results for the “blood clearance % ID/g” value in series [2] (5 minutes) and in series [2] (30 minutes) were 0.6 % ID/g and 0.07 % ID/g, respectively. As for fMLF[(SAACQ-Re(CO)3)^+]G [Compound 6], the dissociation constant Kd in series [3] was 27 ± 13 nM.
